Test results taken from patent publication US20130172384A1, “FATTY ACID SYNTHASE INHIBITORS” (GlaxoSmithKline Intellectual Property Development Limited, priority 2010, published 2013).

Target: FAS (Homo sapiens, UniProt P49327)
Test: FAS assay (Assay #1 residual NADPH detection or Assay #2 CoA detection with CPM dye)
Format: biochemical
Details: inhibition of FAS; measured by one of two assays; one experiment or average of multiple experiments
Procedure: FAS activity was measured through one of the two following assays.
Inhibition of FAS activity can be measured based on the detection of residual NADPH substrate after the FAS assay is quenched. This assay is run as a 10 μL endpoint assay in 384-well format, where the reaction contains 20 μM malonyl-CoA, 2 μM acetyl-CoA, 30 μM NADPH and 40 nM FAS in 50 mM sodium phosphate, pH 7.0. The assay is run by sequentially dispensing 5 μl of a malonyl-CoA solution, then enzyme solution (containing the acetyl-CoA, and NADPH) into a black, low volume assay plate (Greiner 784076) pre-dispensed with 100 nL compound solutions in DMSO. The reaction is incubated at ambient temperature for 60 minutes, then quenched with 5 μL of a developing solution composed of 90 μM resazurin, 0.3 IU/ml diaphorase in 50 mM sodium phosphate, pH 7.0. The developed reaction is read on a Molecular Devices Analyst or Acquest (or equivalent) plate reader using a 530 nm excitation wavelength filter, a 580 nm emission filter, and 561 nm dichroic filter. The test compounds are prepared in neat DMSO at a concentration of 10 mM. For inhibition curves, compounds are diluted using a three fold serial dilution and tested at 11 concentrations (e.g. 25 μM-0.42 nM). Curves are analysed using ActivityBase and XLfit, and results are expressed as pIC50 values.
Inhibition of FAS can also be quantified based on the detection of the CoA products with a thio-reactive coumarin dye. This assay is run as a 10 μL endpoint assay in 384-well format, where the reaction contains 20 μM malonyl-CoA, 20 μM acetyl-CoA, 40 μM NADPH and 2 nM FAS in 50 mM sodium phosphate, pH 7.0, and 0.04% Tween-20. The assay is run by adding 5 μL enzyme solution to a black, low volume assay plate (Greiner 784076) pre-dispensed with 100 nl compound solutions in DMSO. After 30 minutes, 5 μL substrate is added, and the reaction incubated at ambient temperature for an additional 60 minutes. The reaction is then quenched with 10 μL of 6M guanidine-HCl containing 50 μM CPM (7-diethylamino-3-(4′-maleimidylphenyl)-4-methylcoumarin (CPM; thio-reactive dye), and incubated for 30 minutes. The plate is read on an Envision (PerkinElmer) or equivalent plate reader using a 380 nm excitation wavelength filter, and a 486 nm emission filter. Data fitting and compound preparations are done as described above.

Sequence of FAS (P49327 whole entry): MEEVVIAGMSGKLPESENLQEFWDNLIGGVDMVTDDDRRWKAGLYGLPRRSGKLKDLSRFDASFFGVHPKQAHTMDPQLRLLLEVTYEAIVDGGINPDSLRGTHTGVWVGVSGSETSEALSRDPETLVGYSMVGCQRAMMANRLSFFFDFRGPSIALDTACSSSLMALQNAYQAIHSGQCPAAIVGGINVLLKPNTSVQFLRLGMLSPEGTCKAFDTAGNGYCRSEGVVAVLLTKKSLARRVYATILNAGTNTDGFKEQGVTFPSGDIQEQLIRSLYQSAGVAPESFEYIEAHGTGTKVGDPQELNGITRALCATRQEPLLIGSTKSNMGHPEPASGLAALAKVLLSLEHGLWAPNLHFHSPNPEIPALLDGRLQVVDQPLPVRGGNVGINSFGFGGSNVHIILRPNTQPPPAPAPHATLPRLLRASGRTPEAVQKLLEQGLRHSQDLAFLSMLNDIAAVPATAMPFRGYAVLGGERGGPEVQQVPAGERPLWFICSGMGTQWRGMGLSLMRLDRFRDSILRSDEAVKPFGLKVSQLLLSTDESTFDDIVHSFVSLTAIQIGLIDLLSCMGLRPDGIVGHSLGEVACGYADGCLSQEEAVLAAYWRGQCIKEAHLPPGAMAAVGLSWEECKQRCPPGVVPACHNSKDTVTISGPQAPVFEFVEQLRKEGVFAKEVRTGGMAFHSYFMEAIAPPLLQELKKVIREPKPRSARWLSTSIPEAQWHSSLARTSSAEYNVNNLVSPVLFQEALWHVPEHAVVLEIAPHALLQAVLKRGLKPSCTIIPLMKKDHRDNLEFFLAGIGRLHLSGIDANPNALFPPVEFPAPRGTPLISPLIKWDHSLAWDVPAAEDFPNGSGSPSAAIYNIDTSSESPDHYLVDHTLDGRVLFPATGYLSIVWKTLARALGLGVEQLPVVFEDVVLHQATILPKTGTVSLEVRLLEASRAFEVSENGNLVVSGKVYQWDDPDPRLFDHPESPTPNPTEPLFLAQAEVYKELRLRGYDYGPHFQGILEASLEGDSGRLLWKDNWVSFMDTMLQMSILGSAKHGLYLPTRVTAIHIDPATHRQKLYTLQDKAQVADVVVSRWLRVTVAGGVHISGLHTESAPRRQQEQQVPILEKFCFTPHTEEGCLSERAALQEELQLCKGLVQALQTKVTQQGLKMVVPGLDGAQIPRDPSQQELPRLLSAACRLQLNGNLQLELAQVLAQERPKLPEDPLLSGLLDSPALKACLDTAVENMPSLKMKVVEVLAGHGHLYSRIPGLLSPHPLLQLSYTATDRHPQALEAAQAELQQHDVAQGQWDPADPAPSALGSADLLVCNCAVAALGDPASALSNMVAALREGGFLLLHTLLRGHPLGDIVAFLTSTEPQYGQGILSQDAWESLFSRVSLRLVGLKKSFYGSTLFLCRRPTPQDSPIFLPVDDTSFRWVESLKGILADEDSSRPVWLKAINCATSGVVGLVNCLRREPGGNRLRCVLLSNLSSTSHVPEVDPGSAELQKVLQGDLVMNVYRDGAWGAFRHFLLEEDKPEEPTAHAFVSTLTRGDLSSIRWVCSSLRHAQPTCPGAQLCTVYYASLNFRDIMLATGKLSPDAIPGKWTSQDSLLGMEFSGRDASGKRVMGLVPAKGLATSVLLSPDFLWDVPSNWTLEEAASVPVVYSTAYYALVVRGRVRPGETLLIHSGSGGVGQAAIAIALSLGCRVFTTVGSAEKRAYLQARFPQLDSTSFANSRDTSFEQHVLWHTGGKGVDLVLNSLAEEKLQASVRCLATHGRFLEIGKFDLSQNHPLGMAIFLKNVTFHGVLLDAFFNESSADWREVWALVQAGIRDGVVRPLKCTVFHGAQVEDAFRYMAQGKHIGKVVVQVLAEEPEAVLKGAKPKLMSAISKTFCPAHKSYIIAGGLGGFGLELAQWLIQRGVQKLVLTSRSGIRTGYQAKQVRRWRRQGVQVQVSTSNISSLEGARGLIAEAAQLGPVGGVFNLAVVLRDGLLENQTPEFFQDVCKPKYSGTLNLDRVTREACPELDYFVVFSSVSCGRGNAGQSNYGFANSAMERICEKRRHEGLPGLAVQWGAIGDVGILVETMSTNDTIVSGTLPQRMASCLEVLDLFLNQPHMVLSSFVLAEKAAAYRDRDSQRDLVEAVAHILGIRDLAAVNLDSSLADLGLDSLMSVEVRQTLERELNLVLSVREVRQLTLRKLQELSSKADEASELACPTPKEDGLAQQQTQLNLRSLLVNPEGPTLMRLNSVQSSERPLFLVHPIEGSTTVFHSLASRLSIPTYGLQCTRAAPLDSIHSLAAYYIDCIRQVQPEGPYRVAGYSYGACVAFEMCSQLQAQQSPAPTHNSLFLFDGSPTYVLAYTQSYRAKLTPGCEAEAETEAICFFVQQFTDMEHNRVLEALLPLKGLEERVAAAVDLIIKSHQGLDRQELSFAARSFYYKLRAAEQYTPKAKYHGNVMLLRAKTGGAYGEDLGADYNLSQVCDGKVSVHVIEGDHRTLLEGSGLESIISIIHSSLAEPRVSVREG

SMILES	IC50
O=C(C1CC1)N1CC[C@@H](Cn2c(-c3ccc(-c4ccc(Cl)cc4)cc3F)n[nH]c2=O)C1 [Example 47, 5-(4′-chloro-3-fluoro-4-biphenylyl)-4-{[(3R)-1-(cyclopropylcarbonyl)-3-pyrrolidinyl]methyl}-2,4-dihydro-3H-1,2,4-triazol-3-one]	0.016 µM
CC1(C(=O)N2CC[C@@H](Cn3c(-c4ccc(-c5ccc6occc6c5)cc4)n[nH]c3=O)C2)CC1 [Example 97, 5-[4-(1-benzofuran-5-yl)phenyl]-4-({(3R)-1-[(1-methylcyclopropyl)carbonyl]-3-pyrrolidinyl}methyl)-2,4-dihydro-3H-1,2,4-triazol-3-one]	0.004 µM
O=C(C1CC1)N1CC[C@@H](Cn2c(-c3ccc(-c4ccc5cc[nH]c5c4)c(F)c3)n[nH]c2=O)C1 [Example 4, 4-{[(3R)-1-(cyclopropylcarbonyl)-3-pyrrolidinyl]methyl}-5-[3-fluoro-4-(1H-indol-6-yl)phenyl]-2,4-dihydro-3H-1,2,4-triazol-3-one]	0.025 µM
CN(C)C(=O)N1CC[C@@H](Cn2c(-c3ccc(-c4ccc5occc5c4)cc3)n[nH]c2=O)C1 [Example 92, (3R)-3-({3-[4-(1-benzofuran-5-yl)phenyl]-5-oxo-1,5-dihydro-4H-1,2,4-triazol-4-yl}methyl)-N,N-dimethyl-1-pyrrolidinecarboxamide]	0.025 µM
COc1ccc(-c2ccc(-c3nn(C)c(=O)n3C[C@@H]3CCN(C(=O)C4CC4)C3)cc2)c(Cl)c1 [Example 35, 5-[2′-chloro-4′-(methyloxy)-4-biphenylyl]-4-{[(3R)-1-(cyclopropylcarbonyl)-3-pyrrolidinyl]methyl}-2-methyl-2,4-dihydro-3H-1,2,4-triazol-3-one]	0.079 µM
O=C(C1CC1)N1CC[C@@H](Cn2c(-c3ccc(-c4ccc(F)cc4)cc3)nn(Cc3ccccc3)c2=O)C1 [Example 42, 4-{[(3R)-1-(cyclopropylcarbonyl)-3-pyrrolidinyl]methyl}-5-(4′-fluoro-4-biphenylyl)-2-(phenylmethyl)-2,4-dihydro-3H-1,2,4-triazol-3-one]	0.263 µM
CC(C)C(=O)N1CC[C@@H](Cn2c(-c3ccc(-c4ccc5occc5c4)cc3)n[nH]c2=O)C1 [Example 91, 5-[4-(1-benzofuran-5-yl)phenyl]-4-{[(3R)-1-(2-methylpropanoyl)-3-pyrrolidinyl]methyl}-2,4-dihydro-3H-1,2,4-triazol-3-one]	0.016 µM
O=C(C1CC1)N1CC[C@@H](Cn2c(-c3ccc(-c4ccc5cc[nH]c5c4)cc3)n[nH]c2=O)C1 [Example 21, 4-{[(3R)-1-(cyclopropylcarbonyl)-3-pyrrolidinyl]methyl}-5-[4-(1H-indol-6-yl)phenyl]-2,4-dihydro-3H-1,2,4-triazol-3-one]	0.004 µM
CN(C)S(=O)(=O)Nc1cccc(-c2ccc(-c3n[nH]c(=O)n3C[C@@H]3CCN(C(=O)C4CC4)C3)cc2)c1 [Example 49, N′-[4′-(4-{[(3R)-1-(cyclopropylcarbonyl)-3-pyrrolidinyl]methyl}-5-oxo-4,5-dihydro-1H-1,2,4-triazol-3-yl)-3-biphenylyl]-N,N-dimethylsulfamide]	0.04 µM
O=C(C1CC1)N1CC[C@@H](Cn2c(-c3ccc(-c4ccc(F)nc4)cc3)n[nH]c2=O)C1 [Example 58, 4-{[(3R)-1-(cyclopropylcarbonyl)-3-pyrrolidinyl]methyl}-5-[4-(6-fluoro-3-pyridinyl)phenyl]-2,4-dihydro-3H-1,2,4-triazol-3-one]	2 µM
Cn1nc(-c2ccc(-c3ccc4occc4c3)c(F)c2)n(C[C@@H]2CCN(C(=O)C3CC3)C2)c1=O [Example 2, 5-[4-(1-benzofuran-5-yl)-3-fluorophenyl]-4-{[(3R)-1-(cyclopropylcarbonyl)-3-pyrrolidinyl]methyl}-2-methyl-2,4-dihydro-3H-1,2,4-triazol-3-one]	0.158 µM
O=C(C1CC1)N1CC[C@@H](Cn2c(-c3ccc(-c4ccc(F)cc4)cc3Cl)n[nH]c2=O)C1 [Example 20, 5-(3-chloro-4′-fluoro-4-biphenylyl)-4-{[(3R)-1-(cyclopropylcarbonyl)-3-pyrrolidinyl]methyl}-2,4-dihydro-3H-1,2,4-triazol-3-one]	0.04 µM
O=C(C1CC1)N1CC[C@@H](Cn2c(-c3ccc(-c4ccc(Cl)cc4F)cc3)n[nH]c2=O)C1 [Example 105]	0.05 µM
NC(=O)Nc1cccc(-c2ccc(-c3n[nH]c(=O)n3C[C@@H]3CCN(C(=O)C4CC4)C3)cc2)c1 [Example 103, N-[4′-(4-{[(3R)-1-(cyclopropylcarbonyl)-3-pyrrolidinyl]methyl}-5-oxo-4,5-dihydro-1H-1,2,4-triazol-3-yl)-3-biphenylyl]urea]	0.316 µM
N#Cc1ccc(-c2ccc(-c3n[nH]c(=O)n3C[C@@H]3CCN(C(=O)C4CC4)C3)cc2)cc1 [Example 66, 4′-(4-{[(3R)-1-(cyclopropylcarbonyl)-3-pyrrolidinyl]methyl}-5-oxo-4,5-dihydro-1H-1,2,4-triazol-3-yl)-4-biphenylcarbonitrile]	0.079 µM
O=C(C1CC1)N1CC[C@@H](Cn2c(-c3ccc(-c4cn5ccccc5n4)cc3)n[nH]c2=O)C1 [Example 78, 4-{[(3R)-1-(cyclopropylcarbonyl)-3-pyrrolidinyl]methyl}-5-(4-imidazo[1,2-a]pyridin-2-ylphenyl)-2,4-dihydro-3H-1,2,4-triazol-3-one]	0.398 µM
COc1ccc(-c2ccc(-c3n[nH]c(=S)n3C[C@@H]3CCN(C(=O)C4CC4)C3)cc2)c(Cl)c1 [Example 107, 5-[2′-chloro-4′-(methyloxy)-4-biphenylyl]-4-{[(3R)-1-(cyclopropylcarbonyl)-3-pyrrolidinyl]methyl}-2,4-dihydro-3H-1,2,4-triazole-3-thione]	0.072 µM
O=C(C1CC1)N1CC[C@@H](Cn2c(-c3ccc(-c4ccn5ccnc5c4)cc3)n[nH]c2=O)C1 [Example 79, 4-{[(3R)-1-(cyclopropylcarbonyl)-3-pyrrolidinyl]methyl}-5-(4-imidazo[1,2-a]pyridin-7-ylphenyl)-2,4-dihydro-3H-1,2,4-triazol-3-one]	0.1 µM
O=C(C1CC1)N1CC[C@@H](Cn2c(-c3ccc(-c4cccc5ncccc45)cc3)n[nH]c2=O)C1 [Example 71, 4-{[(3R)-1-(cyclopropylcarbonyl)-3-pyrrolidinyl]methyl}-5-[4-(5-quinolinyl)phenyl]-2,4-dihydro-3H-1,2,4-triazol-3-one]	0.02 µM
